Measured values taken from patent US8653100B2 (AbbVie Inc., priority 2008, dated 2014).
Structures can show the parent of a compound that is named as a salt.

What follows are molecules tested against human GlyT1c transporter (Homo sapiens (Human), UniProt P48067) (assay: Radioligand binding assay using recombinant CHO cell membranes expressing human GlyT1). Settings: examples 88-204, radioligand not specified by footnote, read-out: radioligand binding Kiapp.
Experimental: 2. Radioligand binding assays using recombinant CHO cell membranes expressing human GlyT1:
Radioligand binding to human GlyT1c transporter-expressing membranes was carried out as described in Mezler et al., Molecular Pharmacology 74:1705-1715, 2008.
More specifically, [^3H]-(R)-NPTS radioligand binding to human GlyT1c transporter-expressing membranes was measured in duplicate in a total volume of 200 μl in 96-well plates. To 100 μl of membrane suspension (yielding a final membrane protein concentration of 50 μg/ml) in assay buffer (120 mM NaCl, 2 mM KCl, 10 mM Hepes, 1 mM MgCl2, 1 mM CaCl2, pH 7.5) […] of [^3H]-(R)-NPTS (0.5 nM final) were added in assay buffer. For competition experiments 10 μl of buffer or unlabeled compound solution obtained from dilution series of test compounds in DMSO followed. An intermediate 1:10 dilution in assay buffer yielded a final DMSO concentration of 1%. Non-specific binding was determined in the presence of 10 μM Org24598 (or its racemate Org24461) for [^3H]-(R)-NPTS. After incubation at room temperature for 1 h, the incubation mixture was harvested (Tomtec Mach III U Harvester) through 96-well GF/B filter plates (PerkinElmer), presoaked for 1 h with 40 μl per well of 0.1% polyethylene-imine (PEI). After washing twice with ice-cold 50 mM Tris-HCl pH 7.4 buffer, drying and addition of 35 μl scintillator (BetaplateScint, PerkinElmer) per well followed. The radioactivity was determined by liquid scintillation spectrometry in a MicroBeta (PerkinElmer) plate counter.
Data analysis: For binding of [^3H]-(R)-NPTS to cell membranes, the calculation of Kd and Bmax values from the saturation binding assays and the IC50 values from the displacement binding was performed by iterative non-linear regression analysis adapted from the ‘Ligand’ program (Munson and Rodbard, 1980). Radioligand displacement curves in absence or in presence of increasing concentrations of tested compounds were fitted using a one-site fit and the apparent Ki values were calculated from the IC50 values using the Cheng-Prusoff equation (Cheng and Prusoff 1973).

Chain of human GlyT1c transporter (P48067 whole entry): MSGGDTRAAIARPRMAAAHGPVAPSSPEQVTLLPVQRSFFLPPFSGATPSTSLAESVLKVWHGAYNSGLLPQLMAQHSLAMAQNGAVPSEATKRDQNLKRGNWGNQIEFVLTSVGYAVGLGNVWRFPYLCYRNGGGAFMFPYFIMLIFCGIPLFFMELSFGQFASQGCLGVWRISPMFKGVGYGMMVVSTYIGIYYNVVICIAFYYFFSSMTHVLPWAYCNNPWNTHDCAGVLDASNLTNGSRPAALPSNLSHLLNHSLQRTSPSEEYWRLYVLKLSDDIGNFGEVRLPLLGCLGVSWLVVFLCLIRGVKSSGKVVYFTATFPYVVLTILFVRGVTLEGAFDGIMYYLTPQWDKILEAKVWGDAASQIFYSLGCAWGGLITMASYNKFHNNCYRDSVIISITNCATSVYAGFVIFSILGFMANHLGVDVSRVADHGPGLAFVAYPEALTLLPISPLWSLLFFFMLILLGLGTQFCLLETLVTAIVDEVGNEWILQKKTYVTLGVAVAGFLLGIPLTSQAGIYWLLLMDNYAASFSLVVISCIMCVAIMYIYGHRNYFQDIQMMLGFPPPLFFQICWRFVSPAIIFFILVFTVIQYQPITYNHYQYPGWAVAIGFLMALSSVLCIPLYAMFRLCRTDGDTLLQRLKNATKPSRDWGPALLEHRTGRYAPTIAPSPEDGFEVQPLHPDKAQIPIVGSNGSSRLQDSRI

Row | Compound | Ki [nM]
1 | Cn1cc(S(=O)(=O)NCCOc2ccc3c(c2)C(C2(c4ccc(Cl)cc4)CC(F)(F)C2)NCC3)cn1 (single isomer, unassigned) [Example 138, N-[2-({1-[1-(4-Chlorophenyl)-3,3-difluorocyclobutyl]-1,2,3,4-tetrahydroisoquinolin-7-yl}oxy)ethyl]-1-methyl-1H-pyrazole-4-sulfonamide] | ≤ 100
2 | O=S(=O)(NCCOc1ccc2c(c1)C(C1(c3ccc(Cl)cc3)CCC1)NCC2)C1CCNC1 (single isomer, unassigned) [Example 148, N-[2-({1-[1(4-Chlorophenyl)cyclobutyl]-1,2,3,4-tetrahydroisoquinolin-7-yl}oxy)ethyl]pyrrolidine-3-sulfonamide dihydrochloride] | ≤ 100
3 | O=S(=O)(NCCOc1ccc2c(c1)C(C1(c3ccc(Cl)cc3)CCC1)NCC2)C1CCNC1 (single isomer, unassigned) [Example 151, N-[2-({1-[1-(4-Chlorophenyl)cyclobutyl]-1,2,3,4-tetrahydroisoquinolin-7-yl}oxy)ethyl]pyrrolidine-3-sulfonamide dihydrochloride] | ≤ 100
4 | NCCS(=O)(=O)NCCOc1ccc2c(c1)C(C1(c3ccc(Cl)cc3)CCC1)NCC2 (single isomer, unassigned) [Example 158, 2-Amino-N-[2-({1-[1-(4-chlorophenyl)cyclobutyl]-1,2,3,4-tetrahydroisoquinolin-7-yl}oxy)ethyl]ethanesulfonamide dihydrochloride] | ≤ 100
5 | O=S(=O)(NCCOc1ccc2c(c1)C(C1(c3ccc(Cl)cc3)CCC1)NCC2)C1CCCNC1 (single isomer, unassigned) [Example 160, N-[2-({1-[1-(4-Chlorophenyl)cyclobutyl]-1,2,3,4-tetrahydroisoquinolin-7-yl}oxy)ethyl]piperidine-3-sulfonamide dihydrochloride] | ≤ 100
6 | O=S(=O)(NCCOc1ccc2c(c1)C(C1(c3ccc(Cl)cc3)CCC1)NCC2)C1CCCNC1 (single isomer, unassigned) [Example 164, N-[2-({1-[1-(4-Chlorophenyl)cyclobutyl]-1,2,3,4-tetrahydroisoquinolin-7-yl}oxy)ethyl]piperidine-3-sulfonamide dihydrochloride] | ≤ 1000
7 | Cn1cc(S(=O)(=O)NCCOc2ccc3c(c2)C(C2(c4ccc(Cl)cc4)CC(F)(F)C2)NCC3)cn1 (single isomer, unassigned) [Example 168, N-[2-({1-[1-(4-Chlorophenyl)-3,3-difluorocyclobutyl]-1,2,3,4-tetrahydroisoquinolin-7-yl}oxy)ethyl]-1-methyl-1H-pyrazole-4-sulfonamide] | ≤ 1000
8 | O=S(=O)(NCCOc1ccc2c(c1)C(C1(c3ccc(Cl)cc3)CCC1)NCC2)C1CCNC1 (single isomer, unassigned) [Example 172, N-[2-({1-[1-(4-Chlorophenyl)cyclobutyl]-1,2,3,4-tetrahydroisoquinolin-7-yl}oxy)ethyl]pyrrolidine-3-sulfonamide dihydrochloride] | ≤ 10000
9 | O=S(=O)(NCCOc1ccc2c(c1)C(C1(c3ccc(Cl)cc3)CCC1)NCC2)C1CCNC1 (single isomer, unassigned) [Example 175, N-[2-({1-[1-(4-Chlorophenyl)cyclobutyl]-1,2,3,4-tetrahydroisoquinolin-7-yl}oxy)ethyl]pyrrolidine-3-sulfonamide dihydrochloride] | ≤ 10000
10 | O=S(=O)(NCCOc1ccc2c(c1)C(C1(c3ccc(Cl)cc3)CCC1)NCC2)C1CCCNC1 (single isomer, unassigned) [Example 192, N-[2-({1-[1-(4-Chlorophenyl)cyclobutyl]-1,2,3,4-tetrahydroisoquinolin-7-yl}oxy)ethyl]piperidine-3-sulfonamide dihydrochloride] | ≤ 10000
11 | O=S(=O)(NCCOc1ccc2c(c1)C(C1(c3ccc(Cl)cc3)CCC1)NCC2)C1CCCNC1 (single isomer, unassigned) [Example 193, N-[2-({1-[1-(4-Chlorophenyl)cyclobutyl]-1,2,3,4-tetrahydroisoquinolin-7-yl}oxy)ethyl]piperidine-3-sulfonamide dihydrochloride] | ≤ 10000
12 | C/C=C/S(=O)(=O)NCCOc1ccc2c(c1)C(C1(c3ccc(Cl)cc3)CCC1)NCC2 (centres unmarked) [Example 88, (1E)-N-[2-({1-[1-(4-Chlorophenyl)cyclobutyl]-1,2,3,4-tetrahydroisoquinolin-7-yl}oxy)ethyl]prop-1-ene-1-sulfonamide hydrochloride] | ≤ 100
13 | CCCS(=O)(=O)NCCNc1ccc2c(c1)C(C1(c3ccc(Cl)cc3)CCC1)NCC2 (centres unmarked) [Example 89, N-[2-({1-[1-(4-Chlorophenyl)cyclobutyl]-1,2,3,4-tetrahydroisoquinolin-7-yl}amino)ethyl]propane-1-sulfonamide dihydrochloride] | ≤ 100
14 | CCCS(=O)(=O)NCc1ccc2c(c1)C(C1(c3ccc(Cl)cc3)CCC1)NCC2 (centres unmarked) [Example 90, N-({1-[1-(4-Chlorophenyl)cyclobutyl]-1,2,3,4-tetrahydroisoquinolin-7-yl}methyl)propane-1-sulfonamide hydrochloride] | ≤ 100
15 | Cn1cc(S(=O)(=O)NCc2ccc3c(c2)C(C2(c4ccc(Cl)cc4)CCC2)NCC3)cn1 (centres unmarked) [Example 91, N-({1-[1-(4-Chlorophenyl)cyclobutyl]-1,2,3,4-tetrahydroisoquinolin-7-yl}methyl)-1-methyl-1H-pyrazole-4-sulfonamide trifluoroacetate] | ≤ 100
16 | N#Cc1ccc2c(c1)C(C1(c3ccc(Cl)cc3)CCC1)NCC2 (centres unmarked) [Example 92, 1-[1-(4-Chlorophenyl)cyclobutyl]-1,2,3,4-tetrahydroisoquinoline-7-carbonitrile hydrochloride] | ≤ 100
17 | Cn1cnc(S(=O)(=O)NCc2ccc3c(c2)C(C2(c4ccc(Cl)cc4)CCC2)NCC3)c1 (centres unmarked) [Example 93, N-({1-[1-(4-Chlorophenyl)cyclobutyl]-1,2,3,4-tetrahydroisoquinolin-7-yl}methyl)-1-methyl-1 H-imidazole-4-sulfonamide hydrochloride] | ≤ 100
18 | O=S(=O)(CCCF)NCc1ccc2c(c1)C(C1(c3ccc(Cl)cc3)CCC1)NCC2 (centres unmarked) [Example 94, N-({1-[1-(4-Chlorophenyl)cyclobutyl]-1,2,3,4-tetrahydroisoquinolin-7-yl}methyl)-3-fluoropropane-1-sulfonamide hydrochloride] | ≤ 100
19 | CCCS(=O)(=O)NCc1ccc2c(c1)C(C(C)(C)c1ccc(Cl)cc1)NCC2 (centres unmarked) [Example 96, N-({1-[2-(4-Chlorophenyl)propan-2-yl]-1,2,3,4-tetrahydroisoquinolin-7-yl}methyl)propane-1-sulfonamide hydrochloride] | ≤ 100
20 | O=S(=O)(CCO)NCCOc1ccc2c(c1)C(C1(c3ccc(Cl)cc3)CCC1)NCC2 (centres unmarked) [Example 97, N-[2-({1-[1-(4-Chlorophenyl)cyclobutyl]-1,2,3,4-tetrahydroisoquinolin-7-yl}oxy)ethyl]-2-hydroxyethanesulfonamide hydrochloride] | ≤ 100
21 | CCCS(=O)(=O)NCCOc1ccc2c(c1)C(C1(c3ccccn3)CCC1)NCC2 (centres unmarked) [Example 98, N-[2-({1-[1-(Pyridin-2-yl)cyclobutyl]-1,2,3,4-tetrahydroisoquinolin-7-yl}oxy)ethyl]propane-1-sulfonamide dihydrochloride] | ≤ 100
22 | CCCS(=O)(=O)NCC(=O)Nc1ccc2c(c1)C(C1(c3ccc(Cl)cc3)CCC1)NCC2 (centres unmarked) [Example 99, N-{1-[1-(4-Chlorophenyl)cyclobutyl]-1,2,3,4-tetrahydroisoquinolin-7-yl}-N˜2˜-(propylsulfonyl)glycinamide hydrochloride] | ≤ 100
23 | Cn1cc(S(=O)(=O)NCc2ccc3c(c2)C(C(C)(C)c2ccc(Cl)cc2)NCC3)cn1 (centres unmarked) [Example 100, N-({1-[2-(4-Chlorophenyl)propan-2-yl]-1,2,3,4-tetrahydroisoquinolin-7-yl}methyl)-1-methyl-1H-pyrazole-4-sulfonamide hydrochloride] | ≤ 100
24 | Cn1cnc(S(=O)(=O)NCc2ccc3c(c2)C(C(C)(C)c2ccc(Cl)cc2)NCC3)c1 (centres unmarked) [Example 102, N-({1-[2-(4-Chlorophenyl)propan-2-yl]-1,2,3,4-tetrahydroisoquinolin-7-yl}methyl)-1-methyl-1H-imidazole-4-sulfonamide hydrochloride] | ≤ 100
25 | O=S(=O)(CCCF)NCCOc1ccc2c(c1)C(C1(c3ccccn3)CCC1)NCC2 (centres unmarked) [Example 104, 3-Fluoro-N-[2-({1-[1-(pyridin-2-yl)cyclobutyl]-1,2,3,4-tetrahydroisoquinolin-7-yl}oxy)ethyl]propane-1-sulfonamide hydrochloride] | ≤ 100
26 | CCCS(=O)(=O)NCCOc1ccc2c(c1)C(C1(c3cccc(Cl)n3)CCC1)NCC2 (centres unmarked) [Example 105, N-[2-({1-[1-(6-Chloropyridin-2-yl)cyclobutyl]-1,2,3,4-tetrahydroisoquinolin-7-yl}oxy)ethyl]propane-1-sulfonamide dihydrochloride] | ≤ 100
